How the values were obtained:
LAMP1 = LAMP1 levels in HEK293 cells; format: cell-based, human; conditions: A53T a-syn overexpression
Description: Infected or transfected cells were scraped from six-well dishes and lysed with lysis buffer (50 mM Tris-HCl pH 7.4, 1% Nonidet P-40, 150 mM NaCl, 1 mM EDTA, 1× protease inhibitor mixture (Sigma)) for 30 min at 4 °C. The insoluble pellet was removed following a 10,000 rpm spin for 5 min at 4 °C. Lysates were analyzed by SDS-PAGE/immunoblot using 4–20% Mini-PROTEAN Tris-glycine gels (Bio-Rad), transferred to polyvinylidene fluoride (PVDF) membranes, and blocked in 5% milk containing PBS-Tween-20 (0.1%) for 1 h. PVDF membranes were then incubated with specified primary antibodies followed by incubation with horseradish peroxidase-conjugated secondary antibodies (anti-mouse HRP-linked, Cell Signaling, catalog #7076, 1:5000; anti-rabbit HRP-linked, Cell Signaling, catalog #7074, 1:5000) and detected using enhanced chemiluminescence (GE Healthcare). […]
After fixation, cells were permeabilized with 0.2% Triton-X-100 for 15 min, washed three times with PBS and then incubated with blocking solution (1% BSA, 22.52 mg/mL glycine, 0.1% Tween-20 in PBS or 0.4% saponin, 1% BSA, and 5% goat or donkey serum in PBS) for 1 h. […] Following another three washes with PBS, nuclei were counterstained with DAPI (ThermoFisher) and then coverslips were mounted on slides using Dako fluorescence mounting medium (Agilent) and sealed using clear nail varnish.

[1] = system: endolysosomal flux in SNCA triplication fibroblasts; experiment: Endolysosomal flux assay, confocal microscopy, SNCA triplication fibroblasts; format: cell-based, human
Description: Flux via the endolysosomal pathway was measured with the Lysosome Intracellular Activity Assay Kit which was purchased from Abcam (ab234622) and used according to the manufacturer’s instructions. The kit provides a proprietary lysosome-specific self-quenched substrate which has low background fluorescence, high signal-to-background ratio, and is pH insensitive. In the assay, the substrate is taken up by cells and acts as endocytic cargo which is degraded within an endolysosomal vesicle. Following degradation, the fluorescence signal recovered from the substrate is proportional to the intracellular lysosomal activity. The activity can be measured by fluorescence microscopy or FACS. The assay was performed with HEK293T cells or SNCA triplication fibroblasts (obtained from NINDS Human Genetics Resource Center DNA and Cell Line Repository; NINDS Repository sample number ND27760). Cells were maintained in DMEM supplemented with 10% FBS and 1% pen/strep/glutamine. Cell medium was replaced with fresh medium containing DMSO, Leupeptin, or Bafilomycin A1 and incubated for 1 h at 37 °C with 5% CO2. Self-quenched substrate was added into each condition and incubated for 1 h (HEK293T cells) or overnight (SNCA triplication fibroblasts) at 37 °C with 5% CO2. […] For HEK293T cells, cells were resuspended in PBS containing DMSO or Leupeptin and analyzed by FACS. […]

DEEIERQLKALG [PDpep1.3]
Effect on LAMP1 levels, HEK293 (LAMP1): LAMP1 levels were restored
Effect on endolysosomal flux in fibroblasts [1]: increased endolysosomal flux

— paper PMC10115881, “Disrupting the α-synuclein-ESCRT interaction with a peptide inhibitor mitigates neurodegeneration in preclinical models of Parkinson’s disease” (Nature Communications, 2023)
